Results reported in US20250195513A1, “DEGRADATION OF IRAK4 BY CONJUGATION OF IRAK4 INHIBITORS WITH E3 LIGASE LIGAND AND METHODS OF USE” (BeiGene, Ltd., priority 2022, published 2025).

Tests used:
IRAK4 [1] = target: T1, IRAK4 (Homo sapiens, UniProt Q9NWZ3); assay: IRAK4 Degradation Assay with Human Serum (Karpas299, HTRF/TR-FRET); type: cell-based; details: Karpas-299 in human serum, 24 hrs treatment; for DC50: read-out: IRAK4 degradtion with human serum assay DC50; for Dmax: read-out: IRAK4 degradtion with human serum assay Dmax (%)
T1 construct: endogenous in cells; host or cells: Karpas299
T1 sequence (Q9NWZ3 1-460): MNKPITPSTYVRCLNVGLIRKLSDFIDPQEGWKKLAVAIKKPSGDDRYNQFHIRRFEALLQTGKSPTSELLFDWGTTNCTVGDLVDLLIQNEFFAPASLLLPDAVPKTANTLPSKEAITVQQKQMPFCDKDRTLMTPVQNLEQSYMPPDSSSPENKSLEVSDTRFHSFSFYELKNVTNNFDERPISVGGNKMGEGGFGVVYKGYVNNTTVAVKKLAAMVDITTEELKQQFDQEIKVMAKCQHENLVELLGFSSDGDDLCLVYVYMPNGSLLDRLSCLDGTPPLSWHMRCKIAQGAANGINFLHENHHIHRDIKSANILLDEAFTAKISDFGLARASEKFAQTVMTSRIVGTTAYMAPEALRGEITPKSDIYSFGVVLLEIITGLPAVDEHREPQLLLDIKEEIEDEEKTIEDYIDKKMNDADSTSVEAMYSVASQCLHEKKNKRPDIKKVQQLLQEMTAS
Summary of the method: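 Karpas299 cells in human AB serum (0.2 million/well) treated with serial compound dilutions for 24 h. After lysis, IRAK4 quantified by HTRF (overnight antibody incubation at room temperature, 665/620 nm read). Degradation percentage fitted to four-parameter curve to give DC50.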

IRAK4 [2] = target: T1, IRAK4; assay: IRAK4 Degradation Assay (Karpas299, HTRF/TR-FRET); type: cell-based; details: Karpas-299 cells
Summary of the method: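 Karpas299 cells at 0.2 million per well were exposed to serially diluted compounds for 24 h or 5 h, then lysed. IRAK4 remaining in lysates was quantified by HTRF (665/620 nm) after overnight antibody incubation at room temperature. Percent degradation was fitted to a four-parameter curve to give IC50 (DC50).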

[3] = 24 h treatment, maximum percentage of degradation, read-out: IRAK4 in Karpas-299 (24 h) Dmax (%)
[4] = 24 h treatment, read-out: IRAK4 in Karpas-299 (24 h) DC50
[5] = 5 h treatment, maximum percentage of degradation, read-out: IRAK4 in Karpas-299 (5 h) Dmax (%)
[6] = 5 h treatment, read-out: IRAK4 in Karpas-299 (5 h) DC50

Row | SMILES | DC50 (IRAK4 [1]) [nM] | Dmax (IRAK4 [1]) [%] | Dmax (IRAK4 [2]; [3]) [%] | DC50 (IRAK4 [2]; [4]) [nM] | Dmax (IRAK4 [2]; [5]) [%] | DC50 (IRAK4 [2]; [6]) [nM] | IRAK4 degradtion with human serum assay Dmax (%) (IRAK4 [1]) | IRAK4 in Karpas-299 (24 h) Dmax (%) (IRAK4 [2]; 24 h treatment, maximum percentage of degradation)
1 | CC(C)(O)c1cc2nn([C@H]3CC[C@H](CN4CCN(C5CN(c6cc(F)c([C@H]7CCC(=O)NC7=O)c(F)c6)C5)CC4)CC3)cc2cc1NC(=O)c1ccc2cc(C#N)cnn12 [Example 421, 3-cyano-N-(2-((1r,4r)-4-((4-(1-(4-((R)-2,6-dioxopiperidin-3-yl)-3,5-difluorophenyl)azetidin-3-yl)piperazin-1-yl)methyl)cyclohexyl)-6-(2-hydroxypropan-2-yl)-2H-indazol-5-yl)pyrrolo[1,2-b]pyridazine-7-carboxamide] | 15 | 97 | 95 | 0.8 | – | – | – | –
2 | C[C@@H]1CN([C@H]2C[C@H](c3cc(F)c([C@H]4CCC(=O)NC4=O)c(F)c3)C2)CCN1[C@H]1CC[C@H](n2cc3cc(NC(=O)c4ccc5cc(C#N)cnn45)c(C(C)(C)O)cc3n2)CC1 [Example 366, 3-cyano-N-(2-((1R,4r)-4-((R)-4-((1R,3R)-3-(4-((R)-2,6-dioxopiperidin-3-yl)-3,5-difluorophenyl)cyclobutyl)-2-methylpiperazin-1-yl)cyclohexyl)-6-(2-hydroxypropan-2-yl)-2H-indazol-5-yl)pyrrolo[1,2-b]pyridazine-7-carboxamide] | 14 | 97 | 98 | 1.4 | – | – | – | –
3 | COc1cc(N2CC(C(=O)N3CCN([C@H]4CC[C@H](n5cc6cc(NC(=O)c7ccc8cc(C#N)cnn78)c(C(C)(C)O)cc6n5)CC4)CC3)C2)cc(F)c1N1CCC(=O)NC1=O [Example 210, 3-cyano-N-(2-((1r,4r)-4-(4-(1-(4-(2,4-dioxotetrahydropyrimidin-1(2H)-yl)-3-fluoro-5-methoxyphenyl)azetidine-3-carbonyl)piperazin-1-yl)cyclohexyl)-6-(2-hydroxypropan-2-yl)-2H-indazol-5-yl)pyrrolo[1,2-b]pyridazine-7-carboxamide] | 7 | 98 | 97 | 3.3 | 97 | 6.8 | – | –
4 | CC(C)(O)c1cc2nn([C@H]3CC[C@H](N4CCN(CCc5cc(F)c([C@H]6CCC(=O)NC6=O)c(F)c5)CC4=O)CC3)cc2cc1NC(=O)c1ccc2cc(C#N)cnn12 [Example 334, 3-cyano-N-(2-((1R,4r)-4-(4-(4-((R)-2,6-dioxopiperidin-3-yl)-3,5-difluorophenethyl)-2-oxopiperazin-1-yl)cyclohexyl)-6-(2-hydroxypropan-2-yl)-2H-indazol-5-yl)pyrrolo[1,2-b]pyridazine-7-carboxamide] | 6.3 | 94 | 95 | 0.6 | – | – | – | –
5 | CC(C)(O)c1cc2nn([C@H]3CC[C@H](N4C[C@@H]5CN(CC6CN(c7cc(F)c(C8CCC(=O)NC8=O)c(F)c7)C6)C[C@H]5C4)CC3)cc2cc1NC(=O)c1ccc2cc(C#N)cnn12 (stereo partly drawn) [Example 359, 3-cyano-N-(2-((1S,4r)-4-((3aS,6aS)-5-((1-(4-((R)-2,6-dioxopiperidin-3-yl)-3,5-difluorophenyl)azetidin-3-yl)methyl)hexahydropyrrolo[3,4-c]pyrrol-2(1H)-yl)cyclohexyl)-6-(2-hydroxypropan-2-yl)-2H-indazol-5-yl)pyrrolo[1,2-b]pyridazine-7-carboxamide] | 4.2 | 103 | 97 | 2.4 | – | – | – | –
6 | CC(C)(O)c1cc2nn(C3CCN([C@@H]4CCN(C5CCN(c6cc(F)c([C@H]7CCC(=O)NC7=O)c(F)c6)CC5)CC4(F)F)CC3)cc2cc1NC(=O)c1ccc2cc(C#N)cnn12 [Example 341, 3-cyano-N-(2-((R)-1″-(4-((R)-2,6-dioxopiperidin-3-yl)-3,5-difluorophenyl)-3′,3′-difluoro-[1,4′:1′,4″-terpiperidin]-4-yl)-6-(2-hydroxypropan-2-yl)-2H-indazol-5-yl)pyrrolo[1,2-b]pyridazine-7-carboxamide] | 15 | 96 | 97 | 1.5 | – | – | – | –
7 | C[C@@H]1CN(CC2CN(c3cc(F)c([C@H]4CCC(=O)NC4=O)c(F)c3)C2)CCN1[C@H]1CC[C@H](n2cc3cc(NC(=O)c4ccc5cc(C#N)cnn45)c(C(C)(C)O)cc3n2)CC1 [Example 300, 3-cyano-N-(2-((1R,4r)-4-((R)-4-((1-(4-((R)-2,6-dioxopiperidin-3-yl)-3,5-difluorophenyl)azetidin-3-yl)methyl)-2-methylpiperazin-1-yl)cyclohexyl)-6-(2-hydroxypropan-2-yl)-2H-indazol-5-yl)pyrrolo[1,2-b]pyridazine-7-carboxamide] | 2.4 | 102 | 96 | 0.9 | – | – | – | –
8 | CC(C)(O)c1cc2nn([C@H]3CC[C@H](N4CCN(C5CCN(c6cc(F)c(N7CCC(=O)NC7=O)c(F)c6)CC5)CC4)CC3)cc2cc1NC(=O)c1ccc2cc(C#N)cnn12 [Example 293, 3-cyano-N-(2-((1r,4r)-4-(4-(1-(4-(2,4-dioxotetrahydropyrimidin-1(2H)-yl)-3,5-difluorophenyl)piperidin-4-yl)piperazin-1-yl)cyclohexyl)-6-(2-hydroxypropan-2-yl)-2H-indazol-5-yl)pyrrolo[1,2-b]pyridazine-7-carboxamide] | 9.4 | 96 | 96 | 9.4 | – | – | – | –
9 | Cc1nc(C2CCC(=O)NC2=O)ccc1N1CC(N2CCN(C3CCC(n4cc5cc(NC(=O)c6ccc7cc(C#N)cnn67)c(C(C)(C)O)cc5n4)CC3)CC2)C1 (stereo not drawn) [Example 426, 3-cyano-N-(2-((1r,4r)-4-(4-(1-(6-(2,6-dioxopiperidin-3-yl)-2-methylpyridin-3-yl)azetidin-3-yl)piperazin-1-yl)cyclohexyl)-6-(2-hydroxypropan-2-yl)-2H-indazol-5-yl)pyrrolo[1,2-b]pyridazine-7-carboxamide] | 12 | – | – | 5.5 | – | – | 95 | 95
10 | CC(C)(O)c1cc2nn([C@H]3CC[C@H](N4CCN(C[C@@H]5CCN(c6ccc7c(c6)C(=O)N(C6CCC(=O)NC6=O)C7=O)C5)CC4)CC3)cc2cc1NC(=O)c1ccc2cc(C#N)cnn12 (stereo partly drawn) [Example 431, 3-cyano-N-(2-((1S,4r)-4-(4-(((3S)-1-(2-(2,6-dioxopiperidin-3-yl)-1,3-dioxoisoindolin-5-yl)pyrrolidin-3-yl)methyl)piperazin-1-yl)cyclohexyl)-6-(2-hydroxypropan-2-yl)-2H-indazol-5-yl)pyrrolo[1,2-b]pyridazine-7-carboxamide] | 8.7 | 95 | 94 | 1.6 | – | – | – | –
11 | CC(C)(O)c1cc2nn(C34CC(N5CCN(C(=O)[C@@H]6CCN(c7cc(F)c([C@H]8CCC(=O)NC8=O)c(F)c7)C6)CC5)(C3)C4)cc2cc1NC(=O)c1cccc(C(F)(F)F)n1 [Example 152, N-(2-(3-(4-((R)-1-(4-((R)-2,6-dioxopiperidin-3-yl)-3,5-difluorophenyl)pyrrolidine-3-carbonyl)piperazin-1-yl)bicyclo[1.1.1]pentan-1-yl)-6-(2-hydroxypropan-2-yl)-2H-indazol-5-yl)-6-(trifluoromethyl)picolinamide] | 55 | 98 | 96 | 2.1 | 96 | 3.8 | – | –
